“Also recorded” adds a separate entry of the source.

Data set [1] relates to ptc>dRet^M955T flies. The data set can be described thus: rescue-from-lethality assay in ptc>dRet^M955T flies (drug screening). Type of data set: in vivo, Drosophila. Particulars: drug in fly food, 25° C.
The target of another data set is T1, human BRAF (Homo sapiens, UniProt P15056).
T1 construct: phage display fusion (kinase expressed on phage); purchased DiscoverX (KINOMEscan service); host or cells: phage
The data set can be described thus: Kd measurement (KINOMEscan bead based competition assay), BRAF. Particulars: in vitro binding assay.

Data set [2] concerns dRet^M955T-expressing wing cells. As to the kind of experiment: in vivo cell migration assay in developing wing discs. Particulars: for effect of reduced Lk6 on suppression of cell migration by compound: 765>dRet^M955T; for ptc>dRet^M955T-mediated EMT and cell migration/invasion: wing discs of ptc>dRet^M955T larvae.
Excerpt: For in vivo cell migration assays, third-instar larvae were dissected to collect developing wing discs. After fixation with 4% paraformaldehyde in PBS, discs were whole-mounted and observed for dRet^M955T-expressing cells labeled with GFP under a confocal microscope. At least 20 wing discs were studied for each genotype or treatment. Phospho-Src was stained with anti-Src(pY418) antibody (Invitrogen).
In addition to directing late lethality, the ptc>dRet^M955T transgenes targeted dRet^M955T expression to a stripe of cells at the midline of the developing wing disc epithelium; cells were visualized with an included UAS-GFP transgene.
The subject of the next data set is EPH. As to the kind of experiment: kinase percent inhibition measurement, EPH. The class given is biochemical, human. Particulars: cell-free kinase inhibition assay, compounds screened at 1 μM. As to the method: (§1) The sorafelogs were assayed against a panel of purified human kinases (ThermoFisher) to measure percentage inhibition values and derive kinome profiles (FIG. 61). All compounds were screened at 1 μM, using two biological replicates to determine percent inhibition values. Detailed procedures for kinase reactions and assay formats are described at www.thermofisher.com/kinaseprofiling.

Another data set concerns 765>dRet^M955T flies. The data set can be described thus: wing venation assay in adult flies. Particulars: for ectopic wing venation in 765>dRet^M955T flies: doses tested.
Data set [3] has as its system ptc>dRet^M955T flies. The data set can be described thus: kinome genetic modifier screening of ptc>dRet^M955T flies in the presence of drug. Type of data set: in vivo, Drosophila.
The next data set deals with T2, FRK (Homo sapiens, UniProt P42685).
T2 construct: purchased ThermoFisher
T2 sequence (P42685 whole entry): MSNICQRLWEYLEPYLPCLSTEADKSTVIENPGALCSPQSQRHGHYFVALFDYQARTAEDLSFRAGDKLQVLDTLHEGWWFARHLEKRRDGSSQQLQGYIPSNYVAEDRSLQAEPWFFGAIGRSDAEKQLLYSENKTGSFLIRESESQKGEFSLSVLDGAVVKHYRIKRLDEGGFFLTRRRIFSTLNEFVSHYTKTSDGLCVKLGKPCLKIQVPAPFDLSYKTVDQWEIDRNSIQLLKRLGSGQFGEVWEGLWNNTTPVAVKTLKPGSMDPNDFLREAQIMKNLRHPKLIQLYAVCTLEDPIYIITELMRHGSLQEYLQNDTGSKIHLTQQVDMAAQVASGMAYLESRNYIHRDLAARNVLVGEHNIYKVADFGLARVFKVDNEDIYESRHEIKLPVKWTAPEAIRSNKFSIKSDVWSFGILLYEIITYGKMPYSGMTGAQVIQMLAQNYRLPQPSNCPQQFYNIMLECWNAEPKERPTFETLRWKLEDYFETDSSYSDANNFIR
The data set can be described thus: kinase percent inhibition measurement, FRK. Type of data set: biochemical. Particulars: cell-free kinase inhibition assay, compounds screened at 1 μM. As to the method: as §1

In a further data set the test system is TT human MTC cells. The data set can be described thus: soft agar colony formation assay. The class given is cell-based. Particulars: colonies at three weeks. The text has this:
Imaged with ×40. […] Error bars, standard errors in triplicate.

The target of the next data set is T3, RET(M918T) (Homo sapiens, UniProt P07949, M918T).
T3 construct: phage display fusion (kinase expressed on phage); purchased DiscoverX (KINOMEscan service); host or cells: phage
T3 sequence (P07949 29-1114 M918T): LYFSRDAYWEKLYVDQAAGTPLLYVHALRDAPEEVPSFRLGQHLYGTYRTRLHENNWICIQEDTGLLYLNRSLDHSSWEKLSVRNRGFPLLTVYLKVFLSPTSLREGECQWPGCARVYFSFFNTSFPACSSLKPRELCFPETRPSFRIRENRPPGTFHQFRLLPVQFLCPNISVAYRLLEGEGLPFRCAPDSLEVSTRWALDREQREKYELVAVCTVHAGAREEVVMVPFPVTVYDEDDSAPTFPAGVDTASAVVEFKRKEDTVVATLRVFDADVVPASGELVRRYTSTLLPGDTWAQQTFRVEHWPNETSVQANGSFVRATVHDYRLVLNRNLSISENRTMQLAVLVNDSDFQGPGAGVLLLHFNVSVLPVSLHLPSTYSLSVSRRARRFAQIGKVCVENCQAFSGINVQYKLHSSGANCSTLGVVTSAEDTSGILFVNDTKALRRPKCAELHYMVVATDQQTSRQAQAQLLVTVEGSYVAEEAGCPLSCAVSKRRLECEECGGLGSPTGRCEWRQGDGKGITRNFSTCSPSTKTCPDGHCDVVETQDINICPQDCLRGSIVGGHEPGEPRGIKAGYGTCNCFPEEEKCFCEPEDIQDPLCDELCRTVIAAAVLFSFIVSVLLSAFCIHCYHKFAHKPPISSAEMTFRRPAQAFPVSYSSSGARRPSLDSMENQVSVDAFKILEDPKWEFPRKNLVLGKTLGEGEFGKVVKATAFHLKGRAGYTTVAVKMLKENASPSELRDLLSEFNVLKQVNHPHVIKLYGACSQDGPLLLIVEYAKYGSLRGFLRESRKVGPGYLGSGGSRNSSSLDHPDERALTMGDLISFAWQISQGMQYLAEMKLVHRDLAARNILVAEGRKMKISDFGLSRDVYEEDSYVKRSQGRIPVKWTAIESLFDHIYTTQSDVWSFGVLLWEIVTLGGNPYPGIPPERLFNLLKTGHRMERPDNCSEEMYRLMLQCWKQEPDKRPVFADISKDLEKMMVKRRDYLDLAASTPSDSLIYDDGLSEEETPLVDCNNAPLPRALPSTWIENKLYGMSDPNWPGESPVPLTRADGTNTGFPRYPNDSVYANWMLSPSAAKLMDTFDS
As to the kind of experiment: Kd measurement (KINOMEscan bead based competition assay), RET(M918T). Type of data set: binding. Particulars: in vitro. As to the method:
(§2) Kd values were determined by DiscoverX using a bead based competition assay (KINOMEscan). In brief, kinases were expressed on phage and immobilized on beads via active site-directed ligands. Test compounds were premixed with kinases and assayed for the ability to compete for immobilized ligands. Binding constants were calculated with a standard dose-response curve and the Hill equation, with Hill slope set to −1. […] For each sorafelog-kinase pair, an 11-point series ranging from 30,000 to 0.5 nM, in 3-fold dilutions, were used to derive Kd values. Kd values and s.e.m. are the average of two biological replicates.

The nature of data set [4]: pharmacokinetics assay in mice (clinical signs). Type of data set: in vivo, mouse. Particulars: male ICR mice, 20 mg/kg orally. As to the method: Phamacokinetics assays for APS6-45 were performed by Medicilon Preclinical Research (Shanghai, China). 20 mg/kg of APS6-45 was dosed orally to male ICR mice (5-6 weeks of age), and its plasma concentrations were determined at 0.25, 0.5, 1, 2, 4, 8, 10, and 24 hours post dosing.

The subject of data set [5] is ptc>dRet^M955T flies. As to the kind of experiment: fly rough eye phenotype. Particulars: APS6-45 100 μM, AD80 100 μM.
A further data set in a line: toleration assay in mice. Particulars: female athymic nude mice, oral doses escalated from 0.1 up to 160 mg/kg/day. Type of data set: in vivo, mouse. As to the method:
Toleration assays for APS6-45 were performed by Washington Biotechnology (Baltimore, Md.). Briefly, five female athymic nude mice (5-6 weeks) were administered with increasing oral doses of APS6-45 starting at 0.1 mg/kg/day and observed for 2 days for signs of clinical distress such as weight loss, discharges, and morbidity.

A further data set addresses T4, human RET (Homo sapiens, UniProt P07949).
T4 construct: phage display fusion (kinase expressed on phage); purchased DiscoverX (KINOMEscan service); host or cells: phage
As to the kind of experiment: Kd measurement (KINOMEscan bead based competition assay), RET. Type of data set: binding. Particulars: cell-free in vitro. As to the method:
as §2

The next data set has as its system TT cell tumors. As to the kind of experiment: TT cell xenograft assay in nude mice. The class given is in vivo, mouse. Particulars: 10 mg/kg/day p.o. The protocol: FIGS. 66C-E illustrate the effectiveness of the oral administration of APS6-45 to mice with xenografts. […] Dosing (10 mg/kg/day each) was started on day 0 after establishing TT cell tumors (˜120 mm^3) subcutaneously in nude mice. Error bars, standard errors (n=10). Cabo, cabozantinib; soraf, sorafenib. […] FIG. 66D and FIG. 67 illustrate Waterfall plots showing percent changes in tumor volume on day 30 relative to pretreatment baselines. Each bar represents a single animal. […] Asterisk, complete response. Two mice were lost during the course of the experiment due to unknown causes. Administration of APS6-45 had no effect on mouse body weight as illustrated in FIG. 66E (same legend as FIG. 66C).
Xenograft assays were also performed by Washington Biotechnology. 40 female nude mice (5-6 weeks) were implanted subcutaneously with TT cells. […]

The target in a further data set is T5, MKNK1 (Homo sapiens, UniProt Q9BUB5).
T5 construct: phage display fusion (kinase expressed on phage); purchased DiscoverX (KINOMEscan service); host or cells: phage
T5 sequence (Q9BUB5 whole entry, the tested form may be a part): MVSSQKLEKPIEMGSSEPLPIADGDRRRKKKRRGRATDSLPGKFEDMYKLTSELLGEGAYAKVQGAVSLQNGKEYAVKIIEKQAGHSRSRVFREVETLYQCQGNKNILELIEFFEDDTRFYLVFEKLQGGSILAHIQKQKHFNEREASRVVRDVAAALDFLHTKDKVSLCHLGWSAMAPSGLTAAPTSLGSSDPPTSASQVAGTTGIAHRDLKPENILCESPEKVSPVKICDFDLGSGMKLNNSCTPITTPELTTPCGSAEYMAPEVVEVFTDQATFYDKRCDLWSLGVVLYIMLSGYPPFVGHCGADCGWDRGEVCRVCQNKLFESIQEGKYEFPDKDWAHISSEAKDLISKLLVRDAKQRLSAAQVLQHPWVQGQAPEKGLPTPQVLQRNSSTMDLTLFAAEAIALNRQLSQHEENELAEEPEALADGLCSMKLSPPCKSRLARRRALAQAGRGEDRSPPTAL
As to the kind of experiment: Kd measurement (KINOMEscan bead based competition assay), MKNK1. The class given is binding. Particulars: in vitro. As to the method: as §2

The test system of a further data set is non-oncogenic w^- flies. The data set can be described thus: whole-body toxicity in control, non-transformed flies. The class given is in vivo, Drosophila. Particulars: fed to control.

T1 sequence (P15056 whole entry, the tested form may be a part): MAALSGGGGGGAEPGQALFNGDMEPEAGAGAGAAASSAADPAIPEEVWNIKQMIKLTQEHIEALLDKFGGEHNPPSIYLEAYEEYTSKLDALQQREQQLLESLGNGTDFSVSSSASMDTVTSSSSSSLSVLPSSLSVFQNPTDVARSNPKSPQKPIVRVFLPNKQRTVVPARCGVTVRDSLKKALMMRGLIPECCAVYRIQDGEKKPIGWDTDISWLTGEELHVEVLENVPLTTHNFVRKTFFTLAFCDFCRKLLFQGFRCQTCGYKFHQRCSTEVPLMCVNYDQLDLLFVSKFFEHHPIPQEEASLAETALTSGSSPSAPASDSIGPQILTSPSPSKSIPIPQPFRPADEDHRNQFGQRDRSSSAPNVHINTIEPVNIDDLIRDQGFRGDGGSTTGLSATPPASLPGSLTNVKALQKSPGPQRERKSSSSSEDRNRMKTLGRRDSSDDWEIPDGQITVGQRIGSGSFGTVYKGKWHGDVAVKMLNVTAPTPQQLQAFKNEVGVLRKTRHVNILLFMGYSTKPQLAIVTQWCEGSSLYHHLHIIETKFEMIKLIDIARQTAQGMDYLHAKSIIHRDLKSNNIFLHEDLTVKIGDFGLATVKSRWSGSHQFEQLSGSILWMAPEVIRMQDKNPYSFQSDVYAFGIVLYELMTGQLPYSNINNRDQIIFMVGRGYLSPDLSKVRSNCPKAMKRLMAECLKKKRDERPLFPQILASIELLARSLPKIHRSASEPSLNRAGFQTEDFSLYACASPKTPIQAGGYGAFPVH
T4 sequence (P07949 29-1114): as the sequence (P07949 29-1114 M918T) above, with T890M counted along it
Excerpt for 765>dRet^M955T flies: More than 15 adult wings were scored for abnormal wing venation.
Description for human BRAF: Kd values were determined by DiscoverX using a bead based competition assay (KINOMEscan). In brief, kinases were expressed on phage and immobilized on beads via active site-directed ligands. Test compounds were premixed with kinases and assayed for the ability to compete for immobilized ligands. Binding constants were calculated with a standard dose-response curve and the Hill equation, with Hill slope set to −1. […] Kd values and s.e.m. are the average of two biological replicates.

In the case of `CNC(=O)c1cc(Oc2ccc(NC(=O)Nc3cccc(C(F)(F)F)c3)cc2)ccn1` [LS1-11-2, N-Methyl-4-(4-(3-(3-(trifluoromethyl)phenyl)ureido)phenoxy)picolinamide], the “rescue of ptc>dRet^M955T viability, in words” value (shortened to “rescue … in words”) in the data set on ptc>dRet^M955T flies [1] was “reduced survival”.

Consider `CNC(=O)c1cc(Oc2ccc(NC(=O)Nc3cc(C)ccc3F)cc2)ccn1` [APS4-35-1, 4-(4-(3-(2-Fluoro-5-methylphenyl)ureido)phenoxy)-N-methylpicolinamide], for which the “rescue … in words” value in the data set with ptc>dRet^M955T flies [1] is given as “poor whole animal activity relative to LS1-15; also recorded: reduced rescue”.

Regarding `CNC(=O)c1cc(Oc2ccc(NC(=O)Nc3cc(C(F)(F)F)ccc3F)cc2)ccn1` [LS1-15, 4-(4-(3-(2-Fluoro-5-(trifluoromethyl)phenyl)ureido)phenoxy)-N-methylpicolinamide], the “BRAF binding, in words” value at human BRAF is on record as “significant binding”. Besides, in data set [2], the “effect of reduced Lk6 on suppression of cell migration by compound” value (“effect of reduced Lk6” for short) is reported as “reversed suppression”; the “ptc>dRet^M955T-mediated EMT and cell migration/invasion” value was “strongly suppressed”. Moreover, the “inhibition of EPH kinase activity” value in the data set with EPH is “inhibit”. The “wing venation at higher concentrations” value in the data set with 765>dRet^M955T flies (higher concentrations / high doses that rescue ptc>dRet^M955T viability) is given as “suppressed venation; also recorded: did not promote ectopic wing venation”. Moreover, the “wing venation at low dose” value in the data set on 765>dRet^M955T flies (low dose (10 μM)) is on record as “enhanced venation; also recorded: stimulated significant excess wing vein material”. In the data set on ptc>dRet^M955T flies [1], the “rescue … in words” value is given as “rescued viability significantly better than sorafenib; also recorded: most effective in rescuing lethality”. The “viability of drug-treated ptc>dRet^M955T flies (kinase-proficient control)” value with ptc>dRet^M955T flies [3] (23° C.) is recorded as approximately 50%. Besides, in the data set on ptc>dRet^M955T flies [3] (one active allele of Lk6 removed, in the presence of drug), the “survival to adulthood of ptc>dRet^M955T, Lk6^−/+ flies” value came to 0%. Also, the “viability of ptc>dRet^M955T, phl^−/+ flies” value with ptc>dRet^M955T flies [3] (phl (Raf ortholog) heterozygous, in the presence of drug) amounted to 96%. Besides, the “inhibition of FRK kinase activity” value at FRK is “inhibit”.

For the compound `CNC(=O)c1cc(Oc2ccc(NC(=O)Nc3cc(C(F)(C(F)(F)F)C(F)(F)F)ccc3F)cc2)ccn1` [APS6-45, 4-(4-(3-(2-Fluoro-5-(perfluoropropan-2-yl)phenyl)ureido)phenoxy)-N-methylpicolinamide], the “BRAF binding, in words” value at human BRAF is listed as “significantly reduced BRAF binding”. Besides, the MTC colony formation result in the data set with TT human MTC cells is “Suppression of MTC colony formation”. Moreover, the “activity against oncogenic RET, in words” value on RET(M918T) is “lower activity”. In data set [4], the treatment-related clinical signs result is on record as “No treatment-related clinical signs were observed”. For the same compound, in the data set on ptc>dRet^M955T flies [5], the rough eye phenotype entry is “strongly suppressed; also recorded: strongly rescued the rough eye phenotype”. For the same compound, the “signs of clinical distress (weight loss, discharges, morbidity)” value in “toleration assay in mice” was “no such signs were observed”. For the same compound, the “RET binding / inhibition, in words” value at human RET was “retaining RET inhibition; also recorded: lower activity; also recorded: weakest RET binding”. In the data set on TT cell tumors, the “TT cell tumor growth in nude mice” value was “Suppression of TT cell growth in vivo”. Moreover, the mouse body weight result in the data set on TT cell tumors (xenograft study) is “no effect”. The “effect of reduced Lk6” value in data set [2] is given as “not affected”. Besides, the “ectopic wing venation in 765>dRet^M955T flies” value in the data set with 765>dRet^M955T flies is given as “exclusively suppressed wing venation; also recorded: failed to promote ectopic wing venation”. Moreover, in the data set with ptc>dRet^M955T flies [1], the “rescue … in words” value is “strongest efficacy; also recorded: strongly increased overall ptc>dRet^M955T survival beyond LS1-15”. Also, the “rescue of ptc>dRet^M955T flies (rescued adults / total pupae, viability)” value in the data set on ptc>dRet^M955T flies [1] (optimal doses) turned out to be 84%. Further, on MKNK1, the “MKNK1 binding, in words” value is listed as “only a small decrease”.

For the compound `CNC(=O)c1cc(Oc2ccc(NC(=O)c3ccc(Cl)c(C(F)(F)F)c3)cc2)ccn1` [LS1-37, 4-(4-(4-Chloro-3-(trifluoromethyl)benzamido)phenoxy)-N-methylpicolinamide], the “ptc>dRet^M955T-mediated EMT and cell migration/invasion” value in data set [2] is “worsened cell migration”. Also, the whole body toxicity result in the data set with non-oncogenic w^- flies is “toxic”.

Consider `CNC(=O)c1cc(Oc2ccc(NC(=O)Nc3cc(C(F)F)ccc3F)cc2)ccn1` [APS4-54, 4-(4-(3-(5-(Difluoromethyl)-2-fluorophenyl)ureido)phenoxy)-N-methylpicolinamide], for which the “rescue … in words” value with ptc>dRet^M955T flies [1] is “poor whole animal activity relative to LS1-15; also recorded: reduced rescue”.

As to `CNC(=O)c1cc(Oc2ccc(NC(=O)Nc3ccc(Cl)c(C(F)(F)F)c3)c(F)c2)ccn1` [regorafenib, 4-(4-(3-(4-Chloro-3-(trifluoromethyl)phenyl)ureido)-3-fluorophenoxy)-N-methylpicolinamide, reference compound], the “rescue … in words” value in the data set on ptc>dRet^M955T flies [1] is recorded as “weak efficacy”.

Regarding `CNC(=O)c1cc(Oc2ccc(NC(=O)Nc3cc(C(F)(F)F)ccc3F)c(F)c2)ccn1` [APS3-69-1, 4-(3-Fluoro-4-(3-(2-fluoro-5-(trifluoromethyl)phenyl)ureido)phenoxy)-N-methylpicolinamide], the “ptc>dRet^M955T-mediated EMT and cell migration/invasion” value in data set [2] is “strongly suppressed”.

`CC(C)n1nc(-c2ccc(NC(=O)Nc3cc(C(F)(F)F)ccc3F)cc2)c2c(N)ncnc21` [AD80, reference compound]: the rough eye phenotype entry in the data set with ptc>dRet^M955T flies [5] is “did not”.

As for `CNC(=O)c1cc(Oc2ccc(NC(=O)Nc3cc(C(F)(F)C(F)(F)F)ccc3F)cc2)ccn1` [APS5-16-2, 4-(4-(3-(2-Fluoro-5-(perfluoroethyl)phenyl)ureido)phenoxy)-N-methylpicolinamide], the “BRAF binding, in words” value on human BRAF is given as “significantly reduced BRAF binding”. In the data set on TT human MTC cells, the MTC colony formation entry is reported as “Suppression of MTC colony formation”. The “RET binding / inhibition, in words” value at human RET is listed as “retaining RET inhibition”. Besides, in [2], the “effect of reduced Lk6” value is “not affected”. Further, in the data set with 765>dRet^M955T flies, the “ectopic wing venation in 765>dRet^M955T flies” value is “exclusively suppressed wing venation; also recorded: failed to promote ectopic wing venation”. For the same compound, the “rescue … in words” value in the data set with ptc>dRet^M955T flies [1] was “significant rescue; also recorded: strongly increased overall ptc>dRet^M955T survival beyond LS1-15”. Moreover, the “MKNK1 binding, in words” value on MKNK1 is on record as “significantly reduced MKNK1 binding”.

Values taken from patent US10519113B2, “Kinase inhibitor compounds, compositions, and methods of treating cancer” (ICAHN SCHOOL OF MEDICINE AT MOUNT SINAI, priority 2016, dated 2019).
